The record followed here is PubChem BioAssay (NCI).

“And” between values parts separate entries of the source, which are not always exact repeats. Identical values can stand only once.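 Five concentrations, 48 hours, 96-well plates. Abbreviation: GI50, concentration required for 50% inhibition of growth. TGI marks complete inhibition of growth.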

Common to all, as to experiment: NCI-60 cell line screen, 48 h
Test [1] has as its system SK-MEL-5 melanoma.
For test [2], the system named is MOLT-4 leukemia.
The subject of test [3] is RPMI-8226 leukemia.
Test [4] concerns HOP-62 NSCLC.
Test [5] has as its system SNB-19 CNS.
Test [6] relates to UACC-257 melanoma.
For test [7], the system named is OVCAR-3 ovarian.
In test [8] the test system is M14 melanoma.
The test system of test [9] is RXF 393 renal.

As for `COc1cc2nncc(Sc3cnnc4ccccc34)c2cc1OC`, the TGI in test [1] was 29.5 µM; in test [2], 54.5 µM; in test [3] it was 77.7 µM; in [4], above 100 µM; in test [5], 42.3 µM; in test [6], 68 µM. Further, the TGI was 33.3 µM in [7] and above 100 µM in test [8].
`Clc1ccc([O][In]([O]c2ccc(Cl)cn2)[O]c2ccc(Cl)cn2)nc1`: the GI50 is 15.8 µM in [1]; above 100 µM in test [5]; above 100 µM in [6]; above 100 µM in [7]; above 100 µM in test [9]; above 100 µM in test [8]. The TGI was 76.8 µM in [1]; above 100 µM in test [5]; above 100 µM in test [6]; above 100 µM in test [7]; above 100 µM in test [9]; above 100 µM in test [8].
Regarding `CC(C)N(C(C)C)[PH+]1O[PH+](N(C(C)C)C(C)C)O[PH+](N(C(C)C)C(C)C)O[PH+](N(C(C)C)C(C)C)O[PH+](N(C(C)C)C(C)C)O1.[C-]#[O+].[C-]#[O+].[C-]#[O+].[C-]#[O+].[C-]#[O+].[C-]#[O+].[C-]#[O+].[Cr].[Cr]` (configuration not stated), the GI50 in [1], in test [2], in test [3], in test [4], in test [5] and in [6] was above 100 µM each time. Moreover, the GI50 in test [7], in [9] and in test [8] was above 100 µM throughout. The TGI in test [1], in test [2], in [3], in test [4], in test [5] and in [6] was above 100 µM each time. Besides, the TGI in test [7], in [9] and in test [8] was above 100 µM each time.
Turning to `Cc1cc(C)c2c(c1)CN1CN2Cc2cc(C)cc(C)c21`, the TGI was determined as 63.1 µM in test [2]; 52.2 µM in [3]; 53.2 µM in [4]; 28.3 µM in test [7]; 22.4 µM in test [9]; 51.8 µM in [8].
With `CCC1(Br)C(=O)NC(=O)N(C2CC(O)C(CO)O2)C1N=[N+]=[N-]` (configuration not stated), the TGI in test [1], in [2], in test [3], in [4], in test [5] and in test [6] was above 100 µM throughout. Moreover, the TGI in test [7], in test [9] and in [8] was above 100 µM in each case.
For the compound `COc1ccc([C@H]2CC(=O)N3CCCC3N2)cc1` (some centres not stated), the TGI in [1], in test [2], in test [3], in test [4], in test [5] and in test [6] was above 100 µM in each case. The TGI in test [9] and in test [8] was above 100 µM in each case.
With `Fc1cccc(Cl)c1C1SCc2nc3ccccc3n21` (configuration not stated), the TGI in test [1] is 29.7 µM; in test [2], 52.1 µM; in test [3], 60.2 µM; in [4], above 100 µM; in [5] it was above 100 µM; in test [6] it was 72.7 µM. For the same compound, the figures for the TGI in [7], in [9] and in test [8] were 53.2 µM, above 100 µM and above 100 µM, respectively.
On to `COC(=O)c1nc(NN)[nH]c(=O)c1CCCCCc1c(C(=O)OC)[nH]c(NN)cc1=O`, for which the TGI in test [1], in test [2], in test [3], in test [4], in [5] and in test [6] was above 100 µM each time. Also, the TGI in [7], in test [9] and in test [8] was above 100 µM throughout.
Regarding `O=C1[C@@H](c2ccc(Cl)cc2)[C@H]2CC=C[C@H]2N1O`, the TGI in [1], in test [2], in [3], in [4], in [5] and in test [6] was above 100 µM in each case. Also, the TGI in test [7], in test [9] and in [8] was above 100 µM throughout.
For the compound `Cc1cc(Cl)ccc1NC(=O)C(=O)Cc1nc2ccc(C(=O)c3ccccc3)cc2[nH]c1=O`, the TGI in test [1], in test [2], in test [4], in test [5], in test [6] and in test [7] was above 100 µM throughout. For the same compound, the TGI in test [9] and in [8] was above 100 µM throughout.
For `C=C(C)C1CC2C(C)=C(OC(C)=O)C1n1c(=O)c3cc4ccccc4cc3c(=O)n12` (configuration not stated), the TGI was above 100 µM in [1]; above 100 µM in [2]; above 81.3 µM in test [3]; above 100 µM in test [4]; above 100 µM in [5]; above 100 µM in test [6]. The TGI in [7] is above 100 µM; in [9] it was above 90.9 µM; in test [8] it was above 100 µM.
For the compound `CC[O-].CC[O-].O=C1C(=C([O-])c2ccccc2)C(=O)c2ccccc21.O=C1C(=C([O-])c2ccccc2)C(=O)c2ccccc21.[Ti+4]`, the GI50 in test [1] is above 100 µM; in test [2], above 100 µM; in test [3] it was 42.5 µM; in test [4], above 100 µM; in test [5], 29 µM; in [6] it was above 100 µM. Moreover, the GI50 in [7], in test [9] and in [8] was above 100 µM in each case. In addition, the TGI was above 100 µM in [1]; above 100 µM in test [2]; above 100 µM in test [3]; above 100 µM in [4]; 93 µM in test [5]; above 100 µM in test [6]. The TGI in test [7], in test [9] and in [8] was above 100 µM throughout.
Consider `COc1ccc(C2C(Cl)C(=O)N2n2cnc3ccccc3c2=O)cc1OC` (configuration not stated), for which the TGI in test [1], in test [2], in test [3], in test [4], in test [5] and in test [6] was above 100 µM each time. In addition, the TGI in test [7], in [9] and in test [8] was above 100 µM each time.
With `Cc1cc(O)c2c(c1)C(O)(c1ccc3c(c1O)C(=O)c1c(O)cc(C)cc1C3(O)C1OC(CO)C(O)C(O)C1O)c1cccc(O)c1C2=O` (configuration not stated), the TGI in test [1] was 33 µM; in test [2], 32.6 µM; in test [3], above 100 µM; in test [4], 28.9 µM; in [5], 30.2 µM; in test [6], 28.7 µM. The TGI in test [7] was 22.6 µM; in test [9] it was 24.7 µM; in test [8] it was 30 µM.
Turning to `O=C(C(=O)c1ccc(Cc2ccc(C(=O)C(=O)c3ccccc3)cc2)cc1)c1ccccc1`, the TGI in [1], in test [4], in test [5], in test [6], in test [7] and in [9] was above 100 µM in each case. In [8], the TGI was above 100 µM.
As to `CSc1nc2c(c(O)c(C)c(=O)n2C2OC(COC(C)=O)C(OC(C)=O)C(OC(C)=O)C2OC(C)=O)c(=O)n1C` (configuration not stated), the TGI in test [1], in [3], in test [4], in test [5], in test [6] and in test [7] was above 100 µM each time. Also, the TGI in test [9] and in test [8] was above 100 µM throughout.
For the compound `O=C(c1ccccc1)c1c(CC(O)c2cccnc2)n(C(=O)c2ccccc2)c2ccccc12` (configuration not stated), the TGI in test [1] is 31 µM; in [2], 47.7 µM; in [3] it was 44.2 µM; in test [4] it was 30.4 µM; in test [5], 63.1 µM; in test [6] it was 42 µM. In addition, the results for the TGI in test [7] and in [8] were 32.9 µM and 33.5 µM, respectively.
`O=C(CCc1nc(=S)[nH][nH]1)NC12CC3CC(CC(C3)C1)C2`: the TGI in test [1], in test [4], in [5], in test [6], in test [7] and in test [9] was above 100 µM each time. This compound came in with a TGI in [8] above 100 µM.
With `O=C1c2ccccc2N2OC3(N4CCCC4)CCCC3C12c1ccccc1` (configuration not stated), the TGI in test [1], in [2], in test [3], in [4], in test [5] and in test [6] was above 100 µM each time. The TGI in test [9] and in test [8] was above 100 µM throughout.
With `Cc1cc([N+](=O)[O-])c(C)c2c1[nH]c1ccc(/C(CCC3CCCC3)=N\N)cc12`, the TGI was determined as 37.7 µM in test [1]; 39 µM in test [2]; 62.2 µM in test [3]; 36.7 µM in test [4]; 35.7 µM in test [5]; 42.7 µM in [6]. In addition, the TGI worked out at 36.9 µM in test [7] and 39.5 µM in test [8].
Consider `COc1cc(C2c3cc4c(cc3[C@@H](Nc3ccc(N(C)C)cc3)[C@H]3COC(=O)C23)OCO4)cc(OC)c1O` (some centres not stated), for which the GI50 is 1.12 µM in test [1]; below 0.0075 µM in test [2]; 0.187 µM in test [4]; 0.441 µM in test [5]; 10.2 µM in [6]; 1.44 µM in test [8]. For the same compound, the TGI in test [1] is 2.46 µM and 4.52 µM; in [4], 0.385 µM and 1.23 µM; in [5], 11.2 µM and 11.8 µM; in test [6], 11.2 µM and 28.8 µM; in test [7], 16.9 µM; in test [9], 4.33 µM. The TGI in test [8] was 8.61 µM and 16.2 µM.
In the case of `COc1ccc(C(C2=C(C)C(=O)c3ccccc3C2=O)c2ccc(C(C)C)cc(=O)c2O)cc1` (configuration not stated), the TGI in [1] was 15.2 µM; in test [2], above 100 µM; in test [3] it was above 100 µM; in test [4] it was 6.65 µM; in test [7], 8.54 µM; in [8], 6.24 µM.
For `N=C(N)SCc1cn2ccccc2n1`, the TGI in test [1], in test [2], in [3], in test [4], in [5] and in test [6] was above 100 µM each time. In addition, the TGI in test [7] and in [8] was above 100 µM each time.
On to `CC(C)N(C(=O)C12C3C4C1C1C2C3C41C(O)C(C)(C)C)C(C)C` (configuration not stated), for which the TGI in [1], in test [2], in [4], in test [5], in test [7] and in [8] was above 50 µM throughout.
Take `Cc1nc2c(n1CC(C)(C)C)C(=O)c1ccccc1C2=O`: the TGI in test [1], in test [2], in test [4], in [5], in test [6] and in test [7] was above 100 µM in each case. Further, the TGI in test [9] and in [8] was above 100 µM in each case.
Consider `CC(C)c1cccc(C(C)C)c1NC(=O)C(=O)C(C(=O)c1ccccc1-c1ccccc1)C1OC(=O)c2ccccc21` (configuration not stated), for which the TGI in test [1] is 29.5 µM; in test [2] it was 74.1 µM; in [3] it was above 100 µM; in test [5], 40.1 µM; in test [6] it was 29.9 µM; in [9], 27 µM.
For `CCc1ccccc1NC(=O)C(=O)C(C(=O)c1ccc(OC)cc1)c1ccc(OC)cc1` (configuration not stated), the TGI in test [1], in test [2], in [3], in test [4], in test [5] and in [6] was above 100 µM each time. The TGI in [7] and in test [8] was above 100 µM throughout.
